Calls of active or inactive are those of the source.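 The calls were made as follows: active = AC50 no more than ten times the top concentration tested, that is within one log above it; inconclusive = flat curve fit with activity between 30% and 70%, or invalid poor fit; inactive = AC50 beyond ten times the top tested dose.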
Test system: S. cerevisiae Mot1-301 ts growth rescue, BacTiter-Glo ATP luminescence
Assay: restored Mot1-301 yeast growth at 38.5C – whole organism, S. cerevisiae, Mot1-301 ts mutant, luminescence, dose retest, SUMOylation pathway inhibitor project, confirmation (AID 463204);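 also: growth at restrictive 38.5 degrees C of Mot1-301 OY566 strain; actives raise luminescence by restoring growth of the ts mutant at high temperature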

| SMILES | AC50 |
| --- | --- |
| Cc1c(C(=O)Nc2cccc(F)c2)cnn1-c1ccccc1 | > 42 µM (inactive) |
| CCOC(=O)C1=C(C)NC(=O)CC1c1cc2c(cc1[N+](=O)[O-])OCO2 (stereo unspecified) | > 42 µM (inactive) |
| CCCn1nc(C(=O)NNC(=O)c2cc(S(=O)(=O)NC)ccc2Br)c2ccccc2c1=O | > 42 µM (inactive) |
| Cc1ccc(SCCNC(=O)CN2C(=O)c3ccccc3S2(=O)=O)cc1 | > 42 µM (inactive) |
| COc1ccccc1CNC(=O)CN(c1ccc(C)cc1)S(=O)(=O)c1c(C)n[nH]c1C | > 110 µM (inactive) |
| CN(C)C(CNC(=O)CNC(=O)c1ccc(Br)cc1)c1ccccc1 (stereo unspecified) | > 42 µM (inactive) |
| Cc1ccc(S(=O)(=O)Oc2ccc(/C=C3\N=C(c4cccc(C)c4)OC3=O)cc2)cc1 | > 42 µM (inactive) |
| CCCC(=O)Oc1c(S(=O)(=O)c2ccc(C)cc2)c(C)nn1C(C)(C)C | > 42 µM (inactive) |
| CC1(C)C2CC=C(/C=N/NC(=S)Nc3cccnc3)C1C2 (stereo unspecified) | > 42 µM (inactive) |
| CCCCn1c(N)c(N(Cc2ccccc2OC)C(=O)c2c(CC)noc2C)c(=O)[nH]c1=O | > 42 µM (inactive) |
| CCN(CC)CCCN1C(=O)C(=O)/C(=C(/O)c2ccccc2)C1c1cc(OC)ccc1OC (stereo unspecified) | > 42 µM (inactive) |
| CN(C)/C(CN1CCCCC1)=C1\N=C(c2ccccc2)OC1=O | > 42 µM (inactive) |
| COC/C=C/C1=CC2=CC(=O)C(C)(OC(=O)c3cnc4ccccc4n3)C(=O)C2=CN1CCOC (stereo unspecified) | > 42 µM (inactive) |
| COc1ccc(S(=O)(=O)NC(C)C(=O)NCc2ccccn2)cc1Cl (stereo unspecified) | > 42 µM (inactive) |
| COc1ccc(NC(=S)Nc2ccccc2OC)c(OC)c1 | > 42 µM (inactive) |
| CC1CCN(Cc2nc3c(c(=O)n(C)c(=O)n3C)n2CCc2ccccc2)CC1 | > 42 µM (inactive) |
| Cc1cc(S(=O)(=O)N2CCCC(N3CCOCC3)C2)c(C)cc1Cl (stereo unspecified) | > 42 µM (inactive) |
| CC(OC(=O)c1cnccn1)C(=O)c1ccccc1 (stereo unspecified) | > 42 µM (inactive) |
| CSc1cccc(NC(=S)N2CCCN(Cc3ccccc3F)C2)c1 | > 42 µM (inactive) |
| CC(C)NC(=O)NC(=O)COC(=O)CCCSc1nc2ccccc2s1 | > 42 µM (inactive) |
| Cc1sc(NC(=O)c2ccc(F)cc2)c(CN2CCCCCC2)c1C | > 42 µM (inactive) |
| N#CC1=C(N)Oc2c(ccc3ccccc23)C1c1cccs1 (stereo unspecified) | > 42 µM (inactive) |
| O=C(Cc1cccs1)Nc1cccc(-c2nnc(-c3ccco3)o2)c1 | > 42 µM (inactive) |
| Cc1ccc(NC(=O)NNC(=O)Cn2nc(-c3ccccc3)c(-c3ccccc3)c(C#N)c2=O)cc1 | > 42 µM (inactive) |

| SMILES | AC50 |
| --- | --- |
| COc1ccc(Cl)cc1NC(=O)C1CCCN(c2cc(C)nc3ncnn23)C1 (stereo unspecified) | > 42 µM (inactive) |
| CCC(CC)C(=O)N1CCCC(c2nc(-c3cccs3)no2)C1 (stereo unspecified) | > 42 µM (inactive) |
| O=C(CCCc1nc(-c2ccc(Cl)cc2)no1)NC1CCCCC1 | > 42 µM (inactive) |
| CCn1nccc1C(=O)Nc1nccs1 | > 42 µM (inactive) |
| Nc1nc(CSc2nnnn2-c2ccc(Cl)cc2)nc(N2CCOCC2)n1 | > 42 µM (inactive) |
| O=C(CN1CCN(c2nc(-c3ccccc3)cs2)CC1)NNC(=O)c1ccc(Br)cc1 | > 42 µM (inactive) |
| COc1ccc(-c2nc(NC(=O)CCNC(=O)c3ccco3)sc2C)cc1 | > 42 µM (inactive) |
| O=C(Nc1ccc([N+](=O)[O-])cn1)c1ccc2c(c1)OCO2 | > 42 µM (inactive) |
| CCCNC(=O)c1cc2c(C(F)(F)F)nn(C)c2s1 | > 42 µM (inactive) |
| Cc1cccc2nc(COc3ccc4ccccc4c3Br)cn12 | 11.9 µM |
| CCNC(=S)NNC(=O)c1ccc(=O)n(Cc2ccccc2)c1 | > 42 µM (inactive) |
| Cc1ccc(S(=O)(=O)NCCS(=O)(=O)N2CCN(c3ccc(F)cc3)CC2)cc1 | > 42 µM (inactive) |
| COc1nc(OC)nc(N2CCC(C(=O)NC3CCCCCC3)CC2)n1 | > 42 µM (inactive) |
| Cc1ccc(S(=O)(=O)N2CCCC2C(=O)NCCc2ccccc2)cc1 (stereo unspecified) | > 42 µM (inactive) |
| CN1C(=O)C(=Cc2ccc(N3CCCCC3)o2)C(=O)N(C)C1=S | > 42 µM (inactive) |
| CCC1SC2=NC(C)=C(C(=O)OCCOC)C(c3ccc(C(=O)OC)cc3)N2C1=O (stereo unspecified) | > 42 µM (inactive) |
| C=CCN1c2ccccc2[C@]23C[C@@H](C(=O)OC)N=C2NC(C(=O)OC)=C(C(=O)OC)[C@H]13 | > 42 µM (inactive) |
| COc1ccc(-c2cc(C#N)nc(N3CCN(c4ccccc4)CC3)n2)cc1 | > 42 µM (inactive) |
| O=C1CC(N(CCc2ccccc2)C(=S)Nc2ccccc2)C(=O)N1c1ccc(F)cc1 (stereo unspecified) | > 42 µM (inactive) |
| COc1ccccc1CNC(=O)[C@H](C)NC(=O)C1CCN(C(=O)[C@@H](N)CC(C)C)CC1 | > 42 µM (inactive) |
| CCCc1nc2c(nnn2Cc2ccccc2F)c(=O)[nH]1 | > 42 µM (inactive) |
| O=C(O)C1CCCN1C(=O)c1cncc(Br)c1 (stereo unspecified) | > 42 µM (inactive) |
| CCOc1ccc(-n2cc(C(=O)NCCOC)c3cc(OC)c(OC)cc3c2=O)cc1 | > 42 µM (inactive) |
| Cc1cc(Nc2nc3c(c(=O)n(C)c(=O)n3C)n2C)n(-c2ccc(Cl)cc2)n1 | > 42 µM (inactive) |

| SMILES | AC50 |
| --- | --- |
| COc1ccccc1-n1nnnc1SCC(=O)Nc1ccc(C)c(N)c1 | > 42 µM (inactive) |
| C=CCn1c(-c2ccc(OC)cc2)nc2ccccc21 | > 42 µM (inactive) |
| CC(C)(C)NC(=O)NC(=O)CN1CCN(S(=O)(=O)c2ccc3c(c2)OCCO3)CC1 | > 21 µM (inactive) |
| O=C(NC1CCCCC1)c1ccc2c(=O)n(CC3CCCO3)c(=O)[nH]c2c1 (stereo unspecified) | > 42 µM (inactive) |
| CCc1nc2ccc(C(=O)N3CCN(CC)CC3)cc2nc1CC | > 42 µM (inactive) |
| Clc1cnc(Oc2ccc(Oc3ncc(Cl)cc3Cl)cc2)c(Cl)c1 | > 42 µM (inactive) |
| O=C(O)CNS(=O)(=O)Cc1ccccc1 | > 42 µM (inactive) |
| CCOc1ccc(/C=N/NS(=O)(=O)c2ccc(C)cc2)cc1OC | > 42 µM (inactive) |
| C=CCn1cc(C(C)=O)c(=O)[nH]c1=O | > 42 µM (inactive) |
| CCn1c(CSCc2ccc(F)cc2)nnc1SCC(=O)NCc1ccccc1 | > 42 µM (inactive) |
| O=C(NCCCn1ccnc1)Nc1cccc2ccccc12 | > 42 µM (inactive) |
| COc1ccc2[nH]c(C(=O)N/N=C/c3ccccc3OC)cc2c1 | > 42 µM (inactive) |
| c1ccc(-c2cc3cc4c(cc3cn2)OCO4)cc1 | 11.7 µM |
| COc1ccc(/C=N/NC(=O)c2nnn(-c3nonc3N)c2-c2cccs2)cc1OC | > 42 µM (inactive) |
| COc1ccc(C)cc1NC(=O)C12CCC(C)(C(=O)O1)C2(C)C (stereo unspecified) | > 42 µM (inactive) |
| CCOC(=O)CSc1nc2ccccc2c(=O)n1CC(C)C | > 42 µM (inactive) |
| O=C(CCC1CCCN(C(=O)Cc2cccc(F)c2)C1)N1CCN(c2ccccn2)CC1 (stereo unspecified) | > 42 µM (inactive) |
| CCOC(=O)c1[nH]c2ccc(F)cc2c1NC(=O)CCN1CCOCC1 | > 42 µM (inactive) |
| CSc1nsc(SCC(=O)Nc2cccc(C(=O)O)c2)n1 | > 42 µM (inactive) |
| CC(=O)Nc1cccc(OCC(O)Cn2c(C)nc3ccccc32)c1 (stereo unspecified) | > 42 µM (inactive) |
| O=C(c1cc(-c2ccc(Cl)cc2)n(-c2ccc(Cl)cc2)n1)N1CCOCC1 | > 42 µM (inactive) |
| Cc1noc(C)c1Cc1ccc(O)cc1 | > 42 µM (inactive) |
| CCOC(=O)C1CC(c2ccccc2)=NNC1=O (stereo unspecified) | > 42 µM (inactive) |

Source: PubChem BioAssay AID463204 (Broad Institute, 2010)
